Assay results reported in patent US7994183B2, “Solid preparation comprising 2-[[6-[(3R)-3-amino-1-piperidinyl]-3,4-dihydro-3-methyl-2,4-dioxo-1(2H)-pyrimidinyl]methyl]-4-fluorobenzonitrile” (Takeda Pharmaceutical Company Limited, priority 2007, dated 2011).

Experiment: storage stability of compound (A) succinate alone or mixed with additive; amount of analogs by HPLC (Experimental Example 1A)
Type: physicochemical
Procedure: Comparative Examples 1A, 2A and 3A were preserved in a glass bottle with an opened cap at 40° C., 75% RH for 2 weeks, and the amount of analogs due to decomposition of compound (A) was measured, based on which the storage stability was evaluated.
The amounts of the analogs were measured by high performance liquid chromatography (HPLC) under the conditions of Table 11A. As a result, an analogue that specifically increases at relative retention time (RRT) of about 1.65 was observed.

Cn1c(=O)cc(N2CCC[C@@H](N)C2)n(Cc2cc(F)ccc2C#N)c1=O [compound (A), 2-[[6-[(3R)-3-amino-1-piperidinyl]-3,4-dihydro-3-methyl-2,4-dioxo-1(2H)-pyrimidinyl]methyl]-4-fluorobenzonitrile]
total amount of analogs (%) (40° C./75% RH 2 wk (with opened cap), glass bottle): 0.30%
total amount of analogs (%) (initial): 0.30%
